The source of these data is PMC6585789 (American Journal of Hematology, 2017).

Data set [1] can be described thus: Plasma pharmacokinetics of quizartinib and AC886. Format: in vivo, human.
Data set [2] relates to subjects with FLT3‐ITD–mutated AML following HCT. The following applies: sorafenib maintenance following HCT; cited from earlier work.
For data set [3] the following is noted: potentially due to induction of metabolizing enzymes; cited from earlier work.
The subject of data set [4] is subjects with newly diagnosed AML harboring FLT3 mutations. As to conditions: in combination with standard first line chemotherapy; cited from earlier work.

Usually Tmax stands for the time at which the peak concentration occurs.

Consider `CC(C)(C)c1cc(NC(=O)Nc2ccc(-c3cn4c(n3)sc3cc(OCCN5CCOCC5)ccc34)cc2)no1.Cl.Cl` [quizartinib, N‐(5‐tert‐butyl‐isoxazol‐3‐yl)‐N′‐{4‐[7‐(2‐morpholin‐4‐yl‐ethoxy)imidazo[2,1‐b][1, 3]benzothiazol‐2‐yl]phenyl}urea dihydrochloride], for which, in data set [1] (daily administration), the “Plasma trough concentrations reached steady state by” value is ~15 days. In addition, the Mean trough concentration in data set [1] (from cycle 2 onward, continuous administration) was > 300 ng/mL. Further, the Tmax in data set [1] (human, plasma, oral) lay within 2 to 3.21 h. Also, the “Increase in geometric mean AUC0–24 during multiple dosing” value in data set [1] (quizartinib, both doses) is “approximately 5 fold”.

On to `CNC(=O)c1cc(Oc2ccc(NC(=O)Nc3ccc(Cl)c(C(F)(F)F)c3)cc2)ccn1` [sorafenib], for which, in data set [2], the “1‐year OS” value is 95% and the “1‐year progression‐free survival (PFS)” value is 85%.

For `CO[C@@H]1[C@H](N(C)C(=O)c2ccccc2)C[C@H]2O[C@]1(C)n1c3ccccc3c3c4c(c5c6ccccc6n2c5c31)C(=O)NC4` [midostaurin], the “Plasma concentrations during continuous dosing” value in data set [3] is “decrease during continuous dosing”. The OS benefit result in data set [4] was “significant OS benefit”.
